Read-outs that look alike come from different tables or passages of the source.
Experiments:
P300 = P300 (Homo sapiens, UniProt Q09472); experiment: Immunoblotting of P300 protein levels in LNCaP or 22RV1 cells; type: cell-based; design: LNCaP or 22RV1 cells that express CBP/P300 proteins were treated with GNE-781 or the bivalent compounds; endogenous in cells; host or cells: LNCaP (clone FGC) or 22RV1 cells; settings: read-out: Degradation (10 nM)
Procedure, shortened: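 P300/CBP levels quantified by chemiluminescent immunoblot band densitometry, normalized against tubulin or vinculin loading controls. Lysates came from LNCaP or 22RV1 cells exposed to compounds or DMSO vehicle for indicated times.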

LNCaP cells = experiment: LNCaP cell viability assay (CellTiter-Glo); type: cell-based; settings: for IC50: Homo sapiens, 72 h, LNCaP prostate cancer cell viability inhibition, 3 days
Procedure, shortened: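 Three-day treatment of LNCaP cells (5000 per well) across a 12-point, 3-fold dilution series starting at 10 μM. ATP luminescence (CellTiter-Glo) relative to untreated controls gave dose-response curves fitted nonlinearly for IC50.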

[1] = percentage of inhibition of p300 at 10 nM (Table 3)
[2] = percentage of inhibition of p300 at 10 nM (Table 2)

Sequence of P300 (Q09472 whole entry): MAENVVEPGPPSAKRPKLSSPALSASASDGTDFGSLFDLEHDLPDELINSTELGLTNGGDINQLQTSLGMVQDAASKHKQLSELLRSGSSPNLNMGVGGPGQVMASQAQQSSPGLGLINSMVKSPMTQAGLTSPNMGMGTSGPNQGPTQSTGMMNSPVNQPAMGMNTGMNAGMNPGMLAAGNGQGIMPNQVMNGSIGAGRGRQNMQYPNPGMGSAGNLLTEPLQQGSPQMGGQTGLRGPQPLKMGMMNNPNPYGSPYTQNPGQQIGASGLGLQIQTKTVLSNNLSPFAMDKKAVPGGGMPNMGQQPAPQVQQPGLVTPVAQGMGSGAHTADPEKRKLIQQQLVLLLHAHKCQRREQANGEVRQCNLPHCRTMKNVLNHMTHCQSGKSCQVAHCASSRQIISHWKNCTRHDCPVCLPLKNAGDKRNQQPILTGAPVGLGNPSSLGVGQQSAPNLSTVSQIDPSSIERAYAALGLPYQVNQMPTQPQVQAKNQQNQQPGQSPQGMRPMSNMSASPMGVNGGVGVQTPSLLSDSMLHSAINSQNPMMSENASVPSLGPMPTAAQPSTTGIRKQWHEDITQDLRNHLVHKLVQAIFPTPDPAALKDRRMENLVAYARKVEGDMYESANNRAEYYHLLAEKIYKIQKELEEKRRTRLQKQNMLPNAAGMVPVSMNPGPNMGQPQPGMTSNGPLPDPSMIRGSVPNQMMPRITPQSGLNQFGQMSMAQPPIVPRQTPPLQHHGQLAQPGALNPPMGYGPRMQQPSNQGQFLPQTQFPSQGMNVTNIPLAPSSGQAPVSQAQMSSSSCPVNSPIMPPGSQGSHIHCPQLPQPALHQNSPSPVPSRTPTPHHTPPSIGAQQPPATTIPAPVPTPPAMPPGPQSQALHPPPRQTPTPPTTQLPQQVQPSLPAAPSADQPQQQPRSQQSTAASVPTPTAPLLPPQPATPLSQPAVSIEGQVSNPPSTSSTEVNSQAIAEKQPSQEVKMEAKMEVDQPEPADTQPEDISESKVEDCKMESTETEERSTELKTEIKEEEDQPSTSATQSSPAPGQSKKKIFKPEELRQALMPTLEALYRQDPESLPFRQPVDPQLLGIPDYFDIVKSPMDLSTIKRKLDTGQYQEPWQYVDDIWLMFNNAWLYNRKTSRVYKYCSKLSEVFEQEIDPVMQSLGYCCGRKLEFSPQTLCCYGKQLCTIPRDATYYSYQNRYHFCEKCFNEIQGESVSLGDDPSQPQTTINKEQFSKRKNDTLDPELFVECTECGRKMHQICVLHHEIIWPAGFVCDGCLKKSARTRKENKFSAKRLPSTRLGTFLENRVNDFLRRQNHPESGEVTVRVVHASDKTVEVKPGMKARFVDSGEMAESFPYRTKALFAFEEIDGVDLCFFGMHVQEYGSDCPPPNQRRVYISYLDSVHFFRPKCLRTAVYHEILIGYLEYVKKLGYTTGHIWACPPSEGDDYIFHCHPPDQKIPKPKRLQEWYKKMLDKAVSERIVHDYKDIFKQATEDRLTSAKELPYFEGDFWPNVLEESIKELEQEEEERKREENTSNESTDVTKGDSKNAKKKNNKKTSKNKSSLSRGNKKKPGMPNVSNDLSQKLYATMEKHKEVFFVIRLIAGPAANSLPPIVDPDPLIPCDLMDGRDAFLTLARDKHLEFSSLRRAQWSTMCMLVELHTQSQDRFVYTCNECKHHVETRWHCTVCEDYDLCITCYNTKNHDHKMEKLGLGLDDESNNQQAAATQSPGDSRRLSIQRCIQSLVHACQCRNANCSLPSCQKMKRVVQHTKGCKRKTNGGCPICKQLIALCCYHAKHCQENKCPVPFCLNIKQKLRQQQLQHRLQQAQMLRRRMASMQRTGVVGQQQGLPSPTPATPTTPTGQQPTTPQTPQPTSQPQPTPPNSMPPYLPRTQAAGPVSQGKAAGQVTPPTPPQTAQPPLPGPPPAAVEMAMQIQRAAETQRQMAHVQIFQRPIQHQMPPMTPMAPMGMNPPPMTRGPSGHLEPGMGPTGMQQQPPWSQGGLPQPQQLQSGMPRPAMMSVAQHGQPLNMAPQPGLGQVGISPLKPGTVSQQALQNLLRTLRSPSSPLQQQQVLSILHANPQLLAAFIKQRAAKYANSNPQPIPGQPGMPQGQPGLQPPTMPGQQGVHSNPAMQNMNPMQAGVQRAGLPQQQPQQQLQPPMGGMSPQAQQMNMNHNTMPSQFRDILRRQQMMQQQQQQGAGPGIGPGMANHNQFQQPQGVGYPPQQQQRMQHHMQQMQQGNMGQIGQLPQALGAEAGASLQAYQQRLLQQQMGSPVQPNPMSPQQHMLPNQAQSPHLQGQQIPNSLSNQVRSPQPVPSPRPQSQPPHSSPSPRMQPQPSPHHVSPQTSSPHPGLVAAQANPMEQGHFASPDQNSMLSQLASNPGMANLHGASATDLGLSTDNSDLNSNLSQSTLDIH

| Compound | IC50 (LNCaP cells; CellTiter-Glo (Table 3)) [nM] | inhibition at 0.01 µM (P300; [1]) [%] | inhibition at 0.01 µM (P300; [2]) [%] | IC50 (LNCaP cells; CellTiter-Glo (Table 2)) [nM] | further results |
| --- | --- | --- | --- | --- | --- |
| CNC(=O)N1CCc2c(c(N3CCCc4cc(-c5cnn(C)c5)c(C(F)F)cc43)nn2C2CCN(C(=O)CCCCCCn3c(=O)n(C4CCC(=O)NC4=O)c4ccccc43)CC2)C1 (stereo not drawn) [P-106, 3-(7-(difluoromethyl)-6-(1-methyl-1H-pyrazol-4-yl)-3,4-dihydroquinolin-1(2H)-yl)-1-(1-(7-(3-(2,6-dioxopiperidin-3-yl)-2-oxo-2,3-dihydro-1H-benzo[d]imidazol-1-yl)heptanoyl)piperidin-4-yl)-N-methyl-1,4,6,7-tetrahydro-5H-pyrazolo[4,3-c]pyridine-5-carboxamide] | 24.2 | – | – | – | inhibition at 0.01 µM (P300): 50 to 80% |
| CC(=O)N1CCc2c(c(N3CCCc4cc(-c5cnn(C)c5)c(C(F)F)cc43)nn2C2CCN(CCN3CCC(CCc4cccc5c4C(=O)N(C4CCC(=O)NC4=O)C5=O)CC3)CC2)C1 (stereo not drawn) [P-157, 4-(2-(1-(2-(4-(5-acetyl-3-(7-(difluoromethyl)-6-(1-methyl-1H-pyrazol-4-yl)-3,4-dihydroquinolin-1(2H)-yl)-4,5,6,7-tetrahydro-1H-pyrazolo[4,3-c]pyridin-1-yl)piperidin-1-yl)ethyl)piperidin-4-yl)ethyl)-2-(2,6-dioxopiperidin-3-yl)isoindoline-1,3-dione] | 3.2 | 50 to 80 | – | – | – |
| CC(=O)N1CCc2c(c(N3CCCc4cc(-c5cnn(C)c5)c(C(F)F)cc43)nn2C2CCN(Cc3ccc(COc4cccc5c4CN(C4CCC(=O)NC4=O)C5=O)cc3)CC2)C1 (stereo not drawn) [P-166, 3-(4-((4-((4-(5-acetyl-3-(7-(difluoromethyl)-6-(1-methyl-1H-pyrazol-4-yl)-3,4-dihydroquinolin-1(2H)-yl)-4,5,6,7-tetrahydro-1H-pyrazolo[4,3-c]pyridin-1-yl)piperidin-1-yl)methyl)benzyl)oxy)-1-oxoisoindolin-2-yl)piperidine-2,6-dione] | 0.3 | > 80 | – | – | – |
| CNC(=O)N1CCc2c(c(N3CCCc4cc(-c5cnn(C)c5)c(C(F)F)cc43)nn2C2CCN(C(=O)CCCCCCNc3ccc4c(c3)n(C)c(=O)n4C3CCC(=O)NC3=O)CC2)C1 (stereo not drawn) [P-129, 3-(7-(difluoromethyl)-6-(1-methyl-1H-pyrazol-4-yl)-3,4-dihydroquinolin-1(2H)-yl)-1-(1-(7-((1-(2,6-dioxopiperidin-3-yl)-3-methyl-2-oxo-2,3-dihydro-1H-benzo[d]imidazol-5-yl)amino)heptanoyl)piperidin-4-yl)-N-methyl-1,4,6,7-tetrahydro-5H-pyrazolo[4,3-c]pyridine-5-carboxamide] | 0.2 | > 80 | – | – | – |
| CC(=O)N1CCc2c(c(N3CCCc4cc(-c5cnn(C)c5)c(C(F)F)cc43)nn2C2CCN(C(=O)CCCCCNc3ccc4c(c3)n(C)c(=O)n4C3CCC(=O)NC3=O)CC2)C1 (stereo not drawn) [P-116, 3-(5-((6-(4-(5-acetyl-3-(7-(difluoromethyl)-6-(1-methyl-1H-pyrazol-4-yl)-3,4-dihydroquinolin-1(2H)-yl)-4,5,6,7-tetrahydro-1H-pyrazolo[4,3-c]pyridin-1-yl)piperidin-1-yl)-6-oxohexyl)amino)-3-methyl-2-oxo-2,3-dihydro-1H-benzo[d]imidazol-1-yl)piperidine-2,6-dione] | 9.6 | > 80 | – | – | – |
| CC(=O)N1CCc2c(c(N3CCCc4cc(-c5cnn(C)c5)c(C(F)F)cc43)nn2C2CCN(C(=O)CCCCCCCCn3c(=O)n(C4CCC(=O)NC4=O)c4ccccc43)CC2)C1 (stereo not drawn) [P-163, 3-(3-(9-(4-(5-acetyl-3-(7-(difluoromethyl)-6-(1-methyl-1H-pyrazol-4-yl)-3,4-dihydroquinolin-1(2H)-yl)-4,5,6,7-tetrahydro-1H-pyrazolo[4,3-c]pyridin-1-yl)piperidin-1-yl)-9-oxononyl)-2-oxo-2,3-dihydro-1H-benzo[d]imidazol-1-yl)piperidine-2,6-dione] | 0.9 | – | – | – | inhibition at 0.01 µM (P300): > 80% |
| CC(=O)N1CCc2c(c(N3CCCc4cc(-c5cnn(C)c5)c(C(F)F)cc43)nn2C2CCN(C(=O)CN3CCN(CCc4cccc5c4C(=O)N(C4CCC(=O)NC4=O)C5=O)CC3)CC2)C1 (stereo not drawn) [P-169, 4-(2-(4-(2-(4-(5-Acetyl-3-(7-(difluoromethyl)-6-(1-methyl-1H-pyrazol-4-yl)-3,4-dihydroquinolin-1(2H)-yl)-4,5,6,7-tetrahydro-1H-pyrazolo[4,3-c]pyridin-1-yl)piperidin-1-yl)-2-oxoethyl)piperazin-1-yl)ethyl)-2-(2,6-dioxopiperidin-3-yl)isoindoline-1,3-dione] | > 500 | < 20 | – | – | – |
| CC(=O)N1CCc2c(c(N3CCCc4cc(-c5cnn(C)c5)c(C(F)F)cc43)nn2C2CCN(C(=O)CCCCNc3ccc4c(c3)n(C)c(=O)n4C3CCC(=O)NC3=O)CC2)C1 (stereo not drawn) [P-126, 3-(5-((5-(4-(5-Acetyl-3-(7-(difluoromethyl)-6-(1-methyl-1H-pyrazol-4-yl)-3,4-dihydroquinolin-1(2H)-yl)-4,5,6,7-tetrahydro-1H-pyrazolo[4,3-c]pyridin-1-yl)piperidin-1-yl)-5-oxopentyl)amino)-3-methyl-2-oxo-2,3-dihydro-1H-benzo[d]imidazol-1-yl)piperidine-2,6-dione] | 94 | > 80 | – | – | – |

Continued, in another order:

| IC50 (LNCaP cells; CellTiter-Glo (Table 3)) [nM] | inhibition at 0.01 µM (P300; [1]) [%] | inhibition at 0.01 µM (P300; [2]) [%] | IC50 (LNCaP cells; CellTiter-Glo (Table 2)) [nM] | Compound | further results |
| --- | --- | --- | --- | --- | --- |
| – | – | < 20 | 385 | CNC(=O)N1CCc2c(c(N3CCCc4cc(-c5cnn(CC(=O)NCCCNc6cccc7c6C(=O)N(C6CCC(=O)NC6=O)C7=O)c5)c(C(F)F)cc43)nn2C2CCOCC2)C1 (stereo not drawn) [P-038, 3-(7-(Difluoromethyl)-6-(1-(2-((3-((2-(2,6-dioxopiperidin-3-yl)-1,3-dioxoisoindolin-4-yl)amino)propyl)amino)-2-oxoethyl)-1H-pyrazol-4-yl)-3,4-dihydroquinolin-1(2H)-yl)-N-methyl-1-(tetrahydro-2H-pyran-4-yl)-1,4,6,7-tetrahydro-5H-pyrazolo[4,3-c]pyridine-5-carboxamide] | – |
| – | – | < 20 | 278 | CNC(=O)N1CCc2c(c(N3CCCc4cc(-c5cnn(CC(=O)NCCOCCNc6cccc7c6C(=O)N(C6CCC(=O)NC6=O)C7=O)c5)c(C(F)F)cc43)nn2C2CCOCC2)C1 (stereo not drawn) [P-021] | – |
| > 10000 | < 20 | – | – | CC(=O)N1CCc2c(c(N3CCCc4cc(-c5cnn(C)c5)c(C(F)F)cc43)nn2C2CCN(CCCNC(=O)CNc3cccc4c3C(=O)N(C3CCC(=O)NC3=O)C4=O)CC2)C1 (stereo not drawn) [P-124, N-(3-(4-(5-Acetyl-3-(7-(difluoromethyl)-6-(1-methyl-1H-pyrazol-4-yl)-3,4-dihydroquinolin-1(2H)-yl)-4,5,6,7-tetrahydro-1H-pyrazolo[4,3-c]pyridin-1-yl)piperidin-1-yl)propyl)-2-((2-(2,6-dioxopiperidin-3-yl)-1,3-dioxoisoindolin-4-yl)amino)acetamide] | – |
| 78.5 | < 20 | – | – | CNC(=O)N1CCc2c(c(N3CCCc4cc(-c5cnn(C)c5)c(C(F)F)cc43)nn2C2CCN(C(=O)CCCCCOc3cccc4c3C(=O)N(C3CCC(=O)NC3=O)C4)CC2)C1 (stereo not drawn) [P-089, 3-(7-(Difluoromethyl)-6-(1-methyl-1H-pyrazol-4-yl)-3,4-dihydroquinolin-1(2H)-yl)-1-(1-(6-((2-(2,6-dioxopiperidin-3-yl)-3-oxoisoindolin-4-yl)oxy)hexanoyl)piperidin-4-yl)-N-methyl-1,4,6,7-tetrahydro-5H-pyrazolo[4,3-c]pyridine-5-carboxamide] | – |
| – | – | 20 to 50 | 59.4 | CNC(=O)N1CCc2c(c(N3CCCc4cc(-c5cnn(CC(=O)NCCCCNc6ccc7c(c6)C(=O)N(C6CCC(=O)NC6=O)C7=O)c5)c(C(F)F)cc43)nn2C2CCOCC2)C1 (stereo not drawn) [P-018] | – |
| – | – | 50 to 80 | 14.7 | CNC(=O)N1CCc2c(c(N3CCCc4cc(-c5cnn(CC(=O)NCCCCCNc6ccc7c(c6)C(=O)N(C6CCC(=O)NC6=O)C7=O)c5)c(C(F)F)cc43)nn2C2CCOCC2)C1 (stereo not drawn) [P-019] | viability of LNCaP cells (LNCaP cells; from 10 μM, 12-point 3-fold serial dilution, 3 days (FIG. 4)): dose-dependently suppressed viability |
| – | – | 20 to 50 | 10.6 | CNC(=O)N1CCc2c(c(N3CCCc4cc(-c5cnn(CC(=O)NCCCCCCNc6cccc7c6C(=O)N(C6CCC(=O)NC6=O)C7=O)c5)c(C(F)F)cc43)nn2C2CCOCC2)C1 (stereo not drawn) [P-041, 3-(7-(difluoromethyl)-6-(1-(2-((6-((2-(2,6-dioxopiperidin-3-yl)-1,3-dioxoisoindolin-4-yl)amino)hexyl)amino)-2-oxoethyl)-1H-pyrazol-4-yl)-3,4-dihydroquinolin-1(2H)-yl)-N-methyl-1-(tetrahydro-2H-pyran-4-yl)-1,4,6,7-tetrahydro-5H-pyrazolo[4,3-c]pyridine-5-carboxamide] | – |
| 5.5 | > 80 | – | – | CNC(=O)N1CCc2c(c(N3CCCc4cc(-c5cnn(C)c5)c(C(F)F)cc43)nn2C2CCN(C(=O)CCCCCOc3cccc4c3CN(C3CCC(=O)NC3=O)C4=O)CC2)C1 (stereo not drawn) [P-088, 3-(7-(difluoromethyl)-6-(1-methyl-1H-pyrazol-4-yl)-3,4-dihydroquinolin-1(2H)-yl)-1-(1-(6-((2-(2,6-dioxopiperidin-3-yl)-1-oxoisoindolin-4-yl)oxy)hexanoyl)piperidin-4-yl)-N-methyl-1,4,6,7-tetrahydro-5H-pyrazolo[4,3-c]pyridine-5-carboxamide] | – |

Reference: patent US20230073777A1, “CYCLIC-AMP RESPONSE ELEMENT BINDING PROTEIN (CBP) AND/OR ADENOVIRAL E1A BINDING PROTEIN OF 300 KDA (P300) DEGRADATION COMPOUNDS AND METHODS OF USE” (CULLGEN (SHANGHAI), INC., priority 2019, published 2023)
